Source: patent publication US8722052B2, “Vaccinia virus protein A46 peptide and use thereof” (priority 2008, dated 2014)
Ends that are not written are not given here.

Tests used:
[1] = peptide solubility (observation)
Mal = molecular target: T1, Mal (Homo sapiens, UniProt P58753); experiment: His peptide pulldown of overexpressed Flag-Mal from HEK293_T lysates; assay type: binding; conditions: 25 μM His-peptide, Ni-agarose beads, 2 hr at 4° C.
T1 construct: expressed in transfected cells; host or cells: HEK293_T, lysed in 1% NP-40 buffer
Procedure: (§1) HEK293_T cells were seeded in 6 well plate (1.5×10^5 cells/ml) 24 hours before transfection with 1 μg/well Flag-Mal and 2 μg/well Flag-TRAM encoding plasmids. The total amount of plasmid DNA transfected into the cells was made up to […] by adding pcDNA. 24 hours post-transfection cells were lysed in 1% NP-40 lysis buffer containing 20 mM imidazole. The experimental lysates were incubated with 25 μM His-A464 peptide ((H-H-H-H-H-H-[…]) (SEQ ID NO. 66) and 40 μL of Ni-agarose beads for 2 hr at 4° C. Control samples were incubated with either beads only or beads and 25 μM His-A467 peptide (H-H-H-H-H-H-[…]) (SEQ ID NO. 67). After incubation beads were washed 5 times in lysis buffer with imidazole. Proteins were resolved by SDS-PAGE, and transferred membranes immunoblotted for Flag. Data is representative of four experiments; and
(§2) HEK293_T cells were seeded in 6 well plates (1.5×10^5 cells/ml) 24 hours before transfection. 8 μl of GeneJuice was mixed with 32 μl of serum-free DMEM (SFM) per transfection and incubated for 5 min at room temperature before adding 1 μg per transfection of Flag-Mal or 2 μg of Flag-TRAM encoding plasmid DNA. GeneJuice/SFM/DNA mixture was then incubated for 15 min at room temperature before adding to the cells. […] The signal was read using Odyssey Infrared Imaging System, LI-COR® Biosciences.

TRAM = molecular target: T2, TRAM (Homo sapiens, UniProt Q86XR7); experiment: His peptide pulldown of overexpressed Flag-TRAM from HEK293_T lysates; assay type: binding; conditions: 25 μM His-peptide, Ni-agarose beads, 2 hr at 4° C.
T2 construct: expressed in transfected cells; host or cells: HEK293_T, lysed in 1% NP-40 buffer
Procedure: as §1, §2

TLR4 = assay type: cell-based, human; conditions: THP-1; peptide 20 or 40 μM 1 h before 100 ng/ml LPS; 6 h
TLRs = experiment: TLR responses in human cells; assay type: cell-based
[2] = system: bacterial-induced inflammation; conditions: murine model; McCoy et al, 2005; cited from earlier work
[3] = system: LPS-induced inflammatory mediators; conditions: Tsung et al, 2007; cited from earlier work

T1 sequence (P58753 whole entry): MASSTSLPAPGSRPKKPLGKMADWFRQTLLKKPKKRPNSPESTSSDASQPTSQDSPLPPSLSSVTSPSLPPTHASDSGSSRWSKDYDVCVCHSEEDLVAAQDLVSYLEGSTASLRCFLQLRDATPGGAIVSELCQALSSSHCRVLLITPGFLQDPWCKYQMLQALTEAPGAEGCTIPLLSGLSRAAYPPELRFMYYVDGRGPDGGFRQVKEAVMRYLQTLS
T2 sequence (Q86XR7 whole entry): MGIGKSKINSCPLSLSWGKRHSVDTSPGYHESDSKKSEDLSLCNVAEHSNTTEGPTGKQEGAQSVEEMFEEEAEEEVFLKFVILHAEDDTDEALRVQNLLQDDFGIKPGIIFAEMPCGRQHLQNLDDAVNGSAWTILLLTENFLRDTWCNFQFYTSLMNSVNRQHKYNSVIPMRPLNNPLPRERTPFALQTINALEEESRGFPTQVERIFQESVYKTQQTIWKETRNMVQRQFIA
Sequence of TLR4 (O00206 24-839): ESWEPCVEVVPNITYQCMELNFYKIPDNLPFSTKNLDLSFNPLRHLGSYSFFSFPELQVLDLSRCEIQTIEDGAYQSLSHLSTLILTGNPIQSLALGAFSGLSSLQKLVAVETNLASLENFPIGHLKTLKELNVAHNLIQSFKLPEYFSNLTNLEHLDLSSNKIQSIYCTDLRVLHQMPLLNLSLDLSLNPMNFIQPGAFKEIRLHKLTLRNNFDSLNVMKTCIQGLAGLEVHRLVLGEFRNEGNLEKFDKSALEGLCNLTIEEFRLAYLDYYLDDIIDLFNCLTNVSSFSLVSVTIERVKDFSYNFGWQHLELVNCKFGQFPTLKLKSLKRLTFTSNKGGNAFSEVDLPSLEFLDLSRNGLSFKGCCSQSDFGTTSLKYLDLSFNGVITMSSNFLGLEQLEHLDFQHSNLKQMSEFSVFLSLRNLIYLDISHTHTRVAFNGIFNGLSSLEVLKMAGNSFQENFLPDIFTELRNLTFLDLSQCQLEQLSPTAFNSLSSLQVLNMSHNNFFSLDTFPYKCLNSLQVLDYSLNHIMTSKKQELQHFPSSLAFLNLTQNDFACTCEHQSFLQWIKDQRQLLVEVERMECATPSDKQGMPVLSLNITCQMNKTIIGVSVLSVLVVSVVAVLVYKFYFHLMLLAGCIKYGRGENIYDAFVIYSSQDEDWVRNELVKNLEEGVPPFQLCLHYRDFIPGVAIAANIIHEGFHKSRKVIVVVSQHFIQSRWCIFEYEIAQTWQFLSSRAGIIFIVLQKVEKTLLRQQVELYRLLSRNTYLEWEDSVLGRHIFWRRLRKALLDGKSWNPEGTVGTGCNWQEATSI
Sequence of TLR4 (Q9Y6Y9 17-160 partner limits assumed): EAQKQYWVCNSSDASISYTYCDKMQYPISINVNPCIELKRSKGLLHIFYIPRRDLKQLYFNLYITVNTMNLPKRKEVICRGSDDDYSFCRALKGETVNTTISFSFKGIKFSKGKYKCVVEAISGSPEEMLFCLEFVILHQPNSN

## KYSFKLILAAYRRRRRRRRR [Peptide E10A, KYSFKLILAAY-9R]
[1]
  solubility of the peptide: insoluble

## H-H-H-H-H-H-KYSFKLILAEY (HHHHHHKYSFKLILAEY) [His-A464]
Mal
  pulldown of overexpressed Mal: capable of pulling down overexpressed Mal or TRAM
TRAM
  pulldown of overexpressed TRAM: capable of pulling down overexpressed Mal or TRAM

## H-H-H-H-H-H-RNTISGNIYSA [His-A467]
Mal
  pulldown of overexpressed Mal: not
TRAM
  pulldown of overexpressed TRAM: not

## P13 (DIVKLTVYDCIRRRRRRRRR) [Peptide P13]
TLR4
  inhibition of LPS-induced TNFα production: even at a high dose of 40 μM, was ineffective at inhibiting TLR4
TLRs
  ability to block TLR responses in human cells: unable to block TLR responses in human cells
[2]
  reduction of in vivo bacterial-induced inflammation: can reduce
[3]
  reduction of LPS-induced inflammatory mediators in mice: can reduce
